Assay results as given in publication PMC8571951, “An activity‐based bioprobe differentiates a novel small molecule inhibitor from a LOXL2 antibody and provides renewed promise for anti‐fibrotic therapeutic strategies” (Clinical and Translational Medicine, 2021).

Biological target: T1, LOXL2 (Homo sapiens, UniProt Q9Y4K0)
T1 sequence (Q9Y4K0 26-774): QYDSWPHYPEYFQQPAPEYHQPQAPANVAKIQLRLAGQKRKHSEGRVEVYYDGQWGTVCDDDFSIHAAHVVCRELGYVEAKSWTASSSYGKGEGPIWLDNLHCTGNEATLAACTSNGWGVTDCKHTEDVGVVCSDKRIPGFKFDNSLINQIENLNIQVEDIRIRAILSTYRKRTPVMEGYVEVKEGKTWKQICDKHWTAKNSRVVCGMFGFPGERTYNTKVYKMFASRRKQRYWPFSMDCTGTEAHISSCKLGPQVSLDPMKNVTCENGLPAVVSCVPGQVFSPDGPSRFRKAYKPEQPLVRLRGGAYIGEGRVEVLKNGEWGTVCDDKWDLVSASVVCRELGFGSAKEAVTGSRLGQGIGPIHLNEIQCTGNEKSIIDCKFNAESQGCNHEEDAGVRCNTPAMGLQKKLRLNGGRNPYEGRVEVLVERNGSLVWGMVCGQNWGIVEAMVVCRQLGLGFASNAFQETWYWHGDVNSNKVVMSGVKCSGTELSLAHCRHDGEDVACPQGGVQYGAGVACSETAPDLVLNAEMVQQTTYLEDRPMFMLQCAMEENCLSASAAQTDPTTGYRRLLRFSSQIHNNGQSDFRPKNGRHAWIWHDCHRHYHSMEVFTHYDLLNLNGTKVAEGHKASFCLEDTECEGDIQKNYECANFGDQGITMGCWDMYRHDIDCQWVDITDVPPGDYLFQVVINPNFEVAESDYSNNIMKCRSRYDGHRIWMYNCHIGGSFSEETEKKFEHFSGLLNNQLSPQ
Assay: Standard Amplex Red assay, rh LOXL2 (putrescine substrate)
Type: biochemical
Conditions: for IC50: Amplex Red assay, 30 min pre-incubation
From the text: FIGURE 1 Characteristics of the activity‐based probe (ABP) PXS‐5878. (A) Chemical structure of PXS‐5878, with functional subunits denoted with different colours. The fluoroallylamine moiety (blue) was designed to interact with the lysine tyrosylquinone (LTQ) co‐factor within the lysyl oxidase active sites. An extended linker (green) was incorporated to provide optimal separation between the reactive functional group and the tag, avoiding unfavourable steric hindrance. Biotin was selected as a tag, with higher sensitivity found to be achieved using a double tag (red), resulting in PXS‐5878 as the preferred ABP. (B) Concentration‐dependent inhibition of recombinant human (rh) lysyl oxidase‐like 1‐4 (LOXL1‐4) and native bovine LOX in a standard Amplex Red assay with 30 min pre‐incubation; n = 3–4 independent experiments, standard error of mean (SEM). Native bovine LOX was used as a surrogate for human LOX as both enzymes have similar pharmacology for fluoroallylamines.[2], [9] (C) Irreversible nature of PXS‐5878 enzyme inhibition confirmed using a jump dilution assay. Enzyme (rh LOXL1, rh LOXL2 or LOXL3) was pre‐incubated with 10 × IC50 of PXS‐5878 for 30 min, then diluted 100x and remaining activity assessed by Amplex Red assay. […] Each value is an average of three experiments. (D) Schematic representation of the assay development to detect lysyl oxidase activity by PXS‐5878 using a direct enzyme‐linked assay with lysyl oxidases as the target analyte. HRP: horseradish peroxidase; TMB: 3,3′,5,5′‐tetramethylbenzidine, a chromogenic substrate. After target analyte is bound to the plate, PXS‐5878 was incubated for 60 min in the presence or absence of a pan‐LOX inhibitor (β‐aminopropionitrile, [BAPN]) and streptavidin‐HRP is then added. After incubation the plate is washed and TMB added to measure the amount of bound ABP/streptavidin/HRP. This leads to a high signal. Application of BAPN to block the enzymatic site prevents PXS‐5878 from binding, and it is consequently washed off the plate, resulting in a low signal. In the final Simoa® assay, the enzyme is bound by the antibody to the bead. (E) Detection of enzymatically active lysyl oxidases by PXS‐5878. rh LOXL1, LOXL2 or LOXL3 were immobilised on the surface of a microtiter plate and processed as described in (D). Optical density in the absence of the pan‐LOX inhibitor BAPN (high signal) was divided by the value in the presence of BAPN (low signal). Low signal was 1.81 ± 0.77 (n = 8) times larger than blank controls. Two independent replicates were performed (total n = 4–5 for each enzyme).
Small molecule, selective LOXL2 (PXS‐5338, Figure S3) or pan‐LOX inhibitors compete with substrate but ultimately occupy the enzymatic pocket, irrespective of whether the substrate is small (e.g., putrescine) or large (e.g., collagen). […] Further studies with AB0023 were therefore limited to 300 nM.
FIGURE 2 Characteristics of PXS‐5338 and inhibition of lysyl oxidase‐like 2 (LOXL2) enzymatic activity in vitro and in vivo. (A) Chemical structure of PXS‐5338. […] (B) Tissue levels of PXS‐5338 measured 1 and 4 h after a single oral dose of 30 mg/kg in the rat. […] Average data from three different animals. (C) Concentration‐dependent inhibition of native human LOX and rh LOXL1‐4 in a standard Amplex Red assay with 30 min pre‐incubation; n ≥3 independent experiments, standard error of mean (SEM). (D) PXS‐5338 inhibits rh LOXL2 in a time‐dependent manner, with increasing potency observed upon longer incubation with the enzyme. […]

Row | Structure (SMILES) | IC50 [nM] | Concentration at which full inhibition of rh LOXL2 is achieved (standard assay using putrescine or collagen as substrate) | Pre-incubation time after which inhibition of rh LOXL2 is complete (varying pre-incubation times, putrescine as substrate) [h] | Change of potency with increasing substrate (putrescine) concentration (substrate added simultaneously with inhibitor)
1 | NC/C=C(\F)CS(=O)(=O)c1cccc(Cn2cc(-c3cc(OCCCc4cn(CCCCC[C@@H]5SC[C@@H]6NC(=O)N[C@@H]65)nn4)cc(OCCCc4cn(CCCCC[C@@H]5SC[C@@H]6NC(=O)N[C@@H]65)nn4)c3)nn2)c1 [PXS-5878] | 203 | – | – | –
2 | CC(C)c1c(Cc2ccc(S(C)(=O)=O)nc2)c2ncccc2n1C/C(F)=C/CN [PXS‐5338] | 35 | above 300 nM | 2 | –
3 | CC(C)c1c(Cc2ccc(S(C)(=O)=O)nc2)c2ncccc2n1C/C(F)=C/CN [PXS-5338] | – | – | – | potency of PXS-5338 decreases
